Data on one sequence can be found in paper PMC7961786, “Magic Peptide: Unique Properties of the LRR11 Peptide in the Activation of Leukotriene Synthesis in Human Neutrophils” (International Journal of Molecular Sciences, 2021).

For assay [1], the system named is PMNLs. Put plainly: Neutrophil adhesion to fibrinogen-coated plates. It counts as cell-based, human. The settings on record: 1 µM ODN +/- 1 µM LRR11, 20 min, 37 °C, n = 3, Figure S2a. On the procedure:
Figure S2a. Effects of ODNs and LRR11 peptide on neutrophil adhesiveness. PMNLs (10^6 cells/probe in HBSS/HEPES) supplemented with 1 µM ODN +/- 1 µM LRR11, except for control samples containing HBSS/HEPES instead of ODNs, were incubated in fibrinogen-coated 24-well plates for 20 min at 37 °C in 5 % CO2. The supernatants were then carefully removed, and wells were washed twice with warm PBS to remove unattached cells. Adhesion quantitative assessment was carried out as described in [59]. Briefly, hydrogen peroxide (4 mM final concentration) in permeabilizing buffer (67 mM Na2HPO4, 35 mM citric acid, 0.1% Triton X-100) supplemented with 5.5 mM ortho-phenylenediamine was added to the attached PMNLs for 5 min. The reaction was stopped by adding of 1M H2SO4, followed by recording the absorption values at 492 nm and comparing them with the calibration values. Data are means ± SEM of attached cells amounts, as the percentages of PMNLs initially contained in the samples (n=3; *p < 0.05; **p < 0.01 in comparison with corresponding controls, as indicated by two-way ANOVA followed by Dunnett’s multiple comparison test). […]

Assay [2] deals with human neutrophils, 5-LOX metabolites. In words: 5-LOX metabolite production in neutrophils without bacteria or other phagocytosis targets. Format: cell-based. The settings on record: in the absence of bacteria or other targets for phagocytosis. On the procedure: Human neutrophils synthesize 5-LOX metabolites (leukotriene B4 (LTB4) and its isomers, ω-OH-LTB4 and 5-HETE), during phagocytosis of opsonized zymosan or S. typhimurium bacteria. In the absence of bacteria or other targets for phagocytosis, treatment of neutrophils with ODNs listed in Table 1 or with LRR11, produce less than 1 ng of LTB4, its isomers, ω-OH-LTB4, and 5-HETE per 10^7 PMNLs. The potential of the LRR11 peptide and ODNs to regulate the synthesis of products catalyzed by 5-LOX was assessed after cell incubation with ODNs (+/−LRR11) followed by the addition of opsonized S. typhimurium bacteria (OS). To test whether neutrophil incubation with ODNs, LRR11 and bacteria affects cell viability, we assessed phosphatidylserine externalization and the integrity of neutrophil membranes after 20 min with ODNs (+/−LRR11) followed by 15 min with OS at 37 °C. The data obtained by flow cytometry using double Alexa Fluor-conjugated Annexin V/propidium iodide staining indicate that in our experiment the percentage of viable cells exceeds 96% (Figure S1).
Human neutrophils were isolated from freshly taken citrate-anticoagulated peripheral blood from healthy individuals using standard methods. Leukocyte-rich plasma was prepared by sedimentation of erythrocytes with 3% dextran T-500 at room temperature. […]

In assay [3] the test system is CpG-ODNs. To be noted: ref [8]; cited from earlier work. The text has this: (§1) In neutrophils, bacteria and pathogen-associated molecular patterns (PAMPs) that are expressed by microorganisms are recognized by Toll-like receptors (TLRs). In particular, the mechanisms of immunoregulatory activity of CpG-containing bacterial or synthetic DNA fragments include their interaction with TLR9 receptors, known as DNA sensors. Therefore, synthetic peptides that mimics DNA recognizing regions of the receptor can be effective modulators of neutrophil cell responses. The crystal structure of TLR9 was analyzed and it was predicted that leucine-rich repeats (L ...

In assay [4] the test system is TLR9 signaling in RAW 264.7. To be noted: ref [9]; cited from earlier work.
Text: as §1

Assay [5] has as its system mouse-derived monocyte/macrophage cell line RAW 264.7. To be noted: ref [9]; cited from earlier work.
Text: as §1

With “QLRKLNLSFNYQKRVSFAHLSLAPSFGSLV [LRR11, 30 amino acid peptide from leucine-rich repeat of TLR9]”, the “effect on PMNL adhesion” value in assay [1] is given as “LRR11 did not affect this”. Moreover, the “LTB4, its isomers, ω-OH-LTB4, and 5-HETE produced” value in assay [2] is reported as “less than 1 ng per 10^7 PMNLs”. Besides, in assay [3], the “binding to CpG-ODNs” value was “can bind to the CpG-ODNs”. Further, the “effect on TLR9 signaling” value in assay [4] is listed as “attenuating of TLR9 signaling”. The “effect on oligonucleotide internalization” value in assay [5] was “decrease in the oligonucleotide internalization”.
